# Test results reported in paper PMC11612208, “A novel small molecule Enpp1 inhibitor improves tumor control following radiation therapy by targeting stromal Enpp1 expression” (Scientific Reports, 2024).
# Experiments:
# Enpp1 [1] = molecular target: T1, Enpp1 (Homo sapiens, UniProt P22413); assay: Enzymatic inhibition of recombinant ENPP1 cGAMP hydrolysis (AMP-Glo); format: biochemical; design: purchased R&D Systems 6136-EN-010; conditions: recombinant ENPP1 1.5 nM, 20 uM 2'3'-cGAMP; value is the lower threshold of the assay
# T1 sequence (P22413 1-925): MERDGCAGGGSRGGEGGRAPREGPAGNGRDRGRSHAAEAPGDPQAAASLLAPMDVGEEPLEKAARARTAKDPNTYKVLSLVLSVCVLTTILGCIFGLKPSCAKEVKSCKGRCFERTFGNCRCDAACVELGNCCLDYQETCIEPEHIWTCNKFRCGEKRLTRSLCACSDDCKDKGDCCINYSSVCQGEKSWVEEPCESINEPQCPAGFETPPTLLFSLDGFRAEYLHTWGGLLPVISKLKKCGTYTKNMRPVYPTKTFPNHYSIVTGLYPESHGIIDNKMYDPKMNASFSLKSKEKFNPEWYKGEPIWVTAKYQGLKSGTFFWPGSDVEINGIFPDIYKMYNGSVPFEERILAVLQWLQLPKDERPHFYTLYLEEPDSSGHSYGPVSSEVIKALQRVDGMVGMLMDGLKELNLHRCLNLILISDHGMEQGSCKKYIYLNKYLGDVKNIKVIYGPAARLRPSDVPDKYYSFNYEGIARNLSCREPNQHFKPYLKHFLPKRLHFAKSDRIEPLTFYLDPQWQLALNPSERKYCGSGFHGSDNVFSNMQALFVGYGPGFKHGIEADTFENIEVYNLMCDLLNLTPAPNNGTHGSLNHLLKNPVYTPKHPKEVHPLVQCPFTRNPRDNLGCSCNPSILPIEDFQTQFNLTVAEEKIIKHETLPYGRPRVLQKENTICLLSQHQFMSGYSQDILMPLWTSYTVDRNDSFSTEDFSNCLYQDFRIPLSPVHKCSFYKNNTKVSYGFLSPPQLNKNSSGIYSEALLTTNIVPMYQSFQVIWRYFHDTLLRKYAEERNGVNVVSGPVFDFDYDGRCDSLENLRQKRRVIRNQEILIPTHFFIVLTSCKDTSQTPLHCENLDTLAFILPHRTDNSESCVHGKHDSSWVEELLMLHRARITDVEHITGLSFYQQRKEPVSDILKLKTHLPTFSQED
# Protocol: (§1) Enzymatic inhibition assays were performed by incubating 1.5 nM ENPP1 (R&D Systems cat# 6136-EN-010) with serial dilutions of Vir-3 for 15 minutes at 37 °C in buffer (50mM Tris pH 8.0, 250mM NaCl, 0.5mM CaCl2, 1uM ZnCl2, 1% DMSO) before adding 20 uM 2’3’-cGAMP (Invivogen cat.# tlrl-nacga23). The reaction was incubated for 30 min at 37 °C prior to assessing the generated AMP using the AMP-Glo assay (Promega cat.# V5012). Cellular inhibition of cGAMP hydrolysis was performed using HepG2 cells pre-incubated with serial dilutions of Vir-3 in DMEM + 10% Charcoal stripped FBS for 30 min at 37 °C with 5% CO2. 100 ng/mL of 2’3’-cGAMP was then added to the cells and incubated for 20 h at 37 °C with 5% CO2. Media was then removed and the remaining cGAMP was quantified using a 2’3’-cGAMP ELISA kit (Cayman Chemical cat.# 501700).
# MC38 tumors = assay: MC38 tumor model, VIR3 oral gavage +/- 12 Gy focal RT, survival; format: in vivo, mouse
# Protocol: (§2) Tumors were implanted subcutaneously into the right flank as follows: C57BL/6 2 × 10^5 MC38; BALB/c 2 × 10^5 CT26. When tumors were approximately 5 mm in average diameter at approximately 10–14 days following implantation, mice were randomized to receive treatment with CT-guided radiation using the Small Animal Radiation Research Platform (SARRP) from XStrahl. Dosimetry was performed using Murislice software from XStrahl. The SARRP delivered a single dose of 12 Gy to an isocenter within the tumor using a 10 mm x 10 mm collimator and a 45° beam angle to minimize dose delivery to normal tissues. The Enpp1 inhibitor VIR3 was delivered through oral gavage starting 1 day prior to RT daily for 21 days. Tumors were measured using calipers in two directions and reported as mean tumor diameter. Survival curves were based on an endpoint of tumor diameter of greater than 12 mm in any direction.
# To deplete CD8 T cells, 200 µg of depleting anti-CD8b (53 − 5.8, BioXCell, West Lebanon, NH) were administered intraperitoneally. This administration took place one day before the first dose of Vir3, followed by two additional anti-CD8b administrations at 7-day intervals.
# [2] = Toxicity observation in treated mice; format: in vivo; conditions: mice treated with oral VIR3
# MC38 and CT26 tumors = assay: RNASeq of tumors 4 days following radiation treatment; format: in vivo, mouse; conditions: VIR3 treatment
# Protocol: Mice were implanted with tumors and randomized to treatment with 12 Gy RT and VIR3 as above. 4d following RT, the tumors were harvested, debulked and immediately flash frozen by rapid immersion in liquid nitrogen. Frozen tumors were crushed, treated with 500 µl of RNAlater, then frozen at -80 °C. To extract RNA, the samples were thawed on ice, and 500 µl of buffer RLT (QIAGEN Cat. No. 79219) was added and samples were homogenized. Following centrifugation, RNA was isolated using a QIAGEN RNeasy Plus Mini Kit (Cat No. 74134), according to the manufacturer’s instructions. Quality was checked on nanodrop (ND-1000) and the quantity of RNA was determined on Qubit 4 flourometer. To prepare for sequencing, samples were processed using an Illumnia TruSeq® Stranded mRNA Library Prep kit with Illumina TruSeq RNA Single Indexes Set A and Set B barcoding kits. An Illumnia NovaSeq 6000 S1 Reagent Kit v1.5 was used to make RNA libraries along with a NovaSeq XP 2-Lane Kit v1.5. RNA libraries were sequenced on NovaSeq 6000.
# Demultiplexed fastq files for all samples were first processed with FastQC for general quality control. All the samples in the sequencing run passed read level QC with at least 17 million reads per sample. Average read depth across all samples were 51 million reads. Raw illumina BCL data was demultiplexed using Illumina bcl2fastq2 v2.20. Gene expression counts were quantified using salmon-v.1.1.0 [76] for all samples sequenced. Differential gene expression analysis was performed using the R software package edgeR[77]. Differential gene expression analysis was performed on all groups of Tumor+/-Drug+/-RT combinations. Gene set enrichment analysis was performed using GSEA v4.3.2 Preranked method[78],[79]. The following genesets; c3.all.v2023.2.Hs.symbols.gmt, c5.all.v2023.2.Hs.symbols.gmt, c7.all.v2023.2.Hs.symbols.gmt from Molecular Signatures Database (gsea-msigdb.org) were used for enrichment analysis.
# Enpp1 [3] = molecular target: T1, Enpp1; assay: Selectivity and specificity for Enpp1 (statement); conditions: additional studies necessary to confirm in vivo
# [4] = molecular target: T2, HepG2 cells that express ENPP1 on their surface (Homo sapiens, UniProt P22413); assay: Cellular inhibition of cGAMP hydrolysis on HepG2 cells (cGAMP ELISA); format: cell-based; conditions: 100 ng/mL 2'3'-cGAMP, overnight (20 h), read-out: EC50, protection of spiked-in cGAMP from hydrolysis
# T2 construct: HepG2 cells that express ENPP1 on their surface; host or cells: HepG2
# T2 sequence (P22413 1-925): T1 sequence (P22413 1-925)
# Protocol: as §1
# [5] = test system: cDC1 and cDC2 in MC38 tumors; assay: Flow cytometry of myeloid infiltration in MC38 tumors; format: in vivo, mouse; conditions: 4 days following radiation time point (d18)
# Protocol: Analysis of tumor infiltrating myeloid cells was performed as previously described. Briefly, following dissection, tumors were weighed and minced into small fragments, then transferred into C tubes from Miltenyi Biotec containing enzyme digest mix with 250U/mL collagenase IV (Worthington Biochemical, #LS004188), 30U/mL DNase I (Millipore-Sigma, #4536282001), 5mM CaCl2, 5% heat inactivated FBS and HBSS. Tissue was dissociated using a GentleMACS tissue dissociator from Miltenyi Biotech. This was followed by incubation at 37 °C for 30 min with agitation. Enzymatic reactions were quenched using ice cold RPMI containing 10% FBS and 2mM EDTA. Single cell suspensions were then filtered through 100 μm (tumor) or 40 μm (dLN) nylon cell strainers to remove macroscopic debris. Cells were washed and counted for staining. 2 × 10^6 cells were stained with Zombie Aqua Viability Dye from BioLegend (#423102) in PBS for 10 min on ice, then Fc receptors were blocked with anti-CD16/CD32 antibodies from BD Biosciences (2.4G2) for an additional 10 min. After centrifugation, the supernatant was removed and cell were stained with a surface antibody cocktail containing in FACS buffer (PBS, 2mM EDTA, 2% FBS) and Brilliant Stain Buffer Plus from BD Biosciences (#566385) for 20 min on ice. […] Data were analyzed using FlowJo software from Tree Star, v10.7. […]
# CT26 tumors = assay: CT26 tumor model in BALB/c mice, VIR3 oral gavage +/- 12 Gy focal RT, survival; format: in vivo, mouse; conditions: daily oral gavage for 21 days
# Protocol: as §2
# [6] = In vivo pharmacokinetics, IV and PO; conditions: mouse
# Protocol: For pharmacokinetic analysis, female C57BL6 mice were dosed with Vir-3 by either IV administration or oral gavage or IV administration either once or daily for 5 days. 3 mice were used per time point with staggered groups to cover all times. Blood was collected at 0.25, 0.5, 1, 3-, 5-, 8- and 24-hours post-dose into heparinized tubes. Plasma was prepared from each sample and protein precipitated prior to LC-MS/MS injection. Levels of Vir-3 were quantitated, and data was analyzed using Certara’s Phoenix Winnonlin.
smiles,measurement,setting,value
COc1ccc2c(Nc3ccc(S(=N)(=O)NCC(C)O)cc3)ccnc2c1 (centres unmarked) [VIR3],IC50,Enpp1 [1],< 0.75 nM
same,"response to radiation therapy (survival), VIR3 + RT","MC38 tumors; MC38 tumors in C57BL/6 mice, daily oral gavage for 21 days, 12 Gy on second day of dosing",significantly improved the response to radiation therapy
same,"tumor growth, VIR3 alone","MC38 tumors; MC38 tumors in C57BL/6 mice, daily oral gavage for 21 days, no RT",did not impact tumor growth alone
same,response to RT + VIR3 with loss of IFNAR1 in host cells,MC38 tumors; MC38 tumors in IFNAR1-/- mice,completely abrogated all responses to treatment
same,tumor control by RT + VIR3 with loss of STING in host cells,"MC38 tumors; MC38 tumors in STING-/- mice, no statistically significant difference in survival by logrank test",fewer mice cured
same,tumor control by RT + VIR3 with CD8 depletion,"MC38 tumors; MC38 tumors, wt mice, anti-CD8 given",abrogated tumor control
same,toxicity,[2],toxicity was not observed
same,Cdkn1a and Ccl2 gene expression in tumor,MC38 and CT26 tumors; CT26 and MC38 tumors,not impacted
same,Tsc33d3 gene expression in tumor,MC38 and CT26 tumors; both CT26 and MC38 tumors,upregulated
same,Wee1 gene expression in tumor,"MC38 and CT26 tumors; untreated and irradiated CT26 and MC38 tumors, FDR correction",significantly regulated
same,selectivity and specificity for Enpp1,Enpp1 [3],high selectivity and specificity
same,EC50,[4],6.7 nM
same,"dendritic cells (cDC1, cDC2) in tumor, VIR3 alone",[5],can cause DC loss
same,"response to radiation therapy (survival), VIR3 + RT",CT26 tumors; 12 Gy on day 14,significantly improved the response to radiation therapy
same,"tumor growth, VIR3 alone",CT26 tumors; no RT,did not impact tumor growth alone
same,"Cmax, total",[6]; P.O. 60 mg/kg,795 ng/mL
same,oral bioavailability (in words),[6]; comparing IV and PO routes,low
same,half-life,"[6]; female, C57BL6, plasma, iv, I.V. 1 mg/kg",48.3 h
same,clearance,"[6]; female, C57BL6, plasma, iv, I.V. 1 mg/kg, approximate given extrapolation from a portion of AUCinf",~27.7 mL/min/kg
same,Vd,"[6]; female, C57BL6, plasma, iv, I.V. 1 mg/kg, read-out: Vss",52.5 L/kg
same,bioavailability,"[6]; female, C57BL6, plasma, oral, P.O. 60 mg/kg vs I.V. 1 mg/kg",5.7%
same,half-life,"[6]; female, C57BL6, plasma, po, P.O. 60 mg/kg",24.3 h
same,AUC(0-t),"[6]; female, C57BL6, plasma, po, P.O. 60 mg/kg, read-out: AUC0-last, total",1420 ng·h/mL
